In brackets after ≈: the same amount, converted by molar mass.
Key:
[1] = system: 22Rv1 cells modified to stably express luciferase; experiment: Luciferase knockdown by siRNA-containing LNPs in 22Rv1 cells stably expressing luciferase; format: cell-based; conditions: Homo sapiens, siRNA-LNP 50/10/38.5/1.5 mol %, N/P 3, read-out: half maximal effective siRNA concentration (EC50)
Procedure: The LNPs contain 50/10/38.5/1.5 mol % of ionizable lipid/DSPC/chol/PEG-DMG (N/P=3) and the siRNA encodes luciferase.
An siRNA targeted against firefly luciferase purchased from Integrated DNA Technologies (IDT, Coralville, IA) was used to assess ability of LNP to knockdown firefly luciferase in a cell line.
LNP formulations containing the ionizable lipids, nor-MC3 or MC3, DSPC, cholesterol, and PEG-DMG were prepared containing siRNA encoding luciferase as described above. The lipid nanoparticles comprise 50/10/38.5/1.5 mol % of ionizable lipid/DSPC/chol/PEG-DMG and the nitrogen-to-phosphorus ratio (N/P) was 3.

FVII gene = conditions: mice, siRNA formulation; Jayaraman et al., 2012; cited from earlier work

| EC50 [1] | Structure (SMILES) | ED50 for FVII gene silencing (FVII gene) |
| --- | --- | --- |
| 0.164 µg/mL (≈ 0.268 µM) | CCCCC/C=C\C/C=C\CCCCCCCC(CCCCCCC/C=C\C/C=C\CCCCC)OC(=O)CCCN(C)C [nor-MC3, (6Z,9Z,26Z,29Z)-Pentatriaconta-6,9,26,29-tetraen-18-yl 4-(dimethylamino)butanoate] | – |
| – | CCCCC/C=C\C/C=C\CCCCCCCCC1(CCCCCCCC/C=C\C/C=C\CCCCC)OCC(CCN(C)C)O1 (centres unmarked) [KC2] | 0.1 mg/kg |
